Literature values in paper PMC8198792, “Prediction of Anticancer Peptides with High Efficacy and Low Toxicity by Hybrid Model Based on 3D Structure of Peptides” (International Journal of Molecular Sciences, 2021).
Where two headings read alike, the source gives them in different places.

Tests used:
cancer cell lines = tested on: cancer cell lines; parameters: method as in 6 sources, ref CancerPPD [45] and SATPdb ||| ref CancerPPD/SATPdb ||| ref CancerPPD, SATPdb, Swissprot (PDB) ||| ref CancerPPD/SATPdb/Swissprot(PDB) ||| ref CancerPPD / SATPdb ||| ...; details: cited from earlier work
Description: Supplement ijms-22-05630-s001.zip/ACPs(seguence).xlsx, sheet "D1" | column: Activity || Supplement ijms-22-05630-s001.zip/ACPs(seguence).xlsx, sheet "D2" | column: Activity || Supplement ijms-22-05630-s001.zip/ACPs(seguence).xlsx, sheet "D3" | column: Activity || (+ 2 further places)

erythrocytes = details: cited from earlier work
Description: Supplement ijms-22-05630-s001.zip/Hemloytic Peptides(seguence).xlsx, sheet "HD1" | column: Activity || Supplement ijms-22-05630-s001.zip/Hemloytic Peptides(seguence).xlsx, sheet "HD2" | column: Activity || Supplement ijms-22-05630-s001.zip/Hemloytic Peptides(seguence).xlsx, sheet "HD3" | column: Activity

[1] = ACPs dataset D1, label 1 = ACP, 0 = non-ACP (non-anticancer AMPs from SATPdb), ref CancerPPD/SATPdb
[2] = ACPs dataset D4 (sheet "D4"), label 1 = ACP, 0 = non-ACP, ref CancerPPD / SATPdb
[3] = ACPs dataset D3 (sheet "D3"), label 1 = ACP, 0 = non-ACP, ref CancerPPD/SATPdb
[4] = ACPs dataset D5, sheet "D5", label 1 = ACP, 0 = non-ACP, ref CancerPPD [45] and SATPdb
[5] = Hemolytic peptides dataset HD2, label 1 = hemolytic, 0 = non-hemolytic, ref Hemolytik/SATPdb
[6] = hemolytic peptides dataset HD3, 1 = hemolytic (positive set), 0 = non-hemolytic (negative set), labels taken from databases, ref Hemolytik/SATPdb
[7] = ACPs dataset D4 (sheet "D4"), label 1 = ACP (CancerPPD ID), 0 = non-ACP (non-anticancer AMP, SATPdb ID), ref CancerPPD [45] and SATPdb
[8] = natural hemolytic peptide dataset HD1, label collected from databases, ref Hemolytik [49], SATPdb [34]
[9] = ACPs dataset D3 (supplement sheet "D3"), 1 = ACP, 0 = non-ACP, ref CancerPPD [45] and SATPdb
[10] = ACPs dataset D1, 1 = ACP (positive), 0 = non-ACP (negative), label taken from databases, ref CancerPPD [45] and SATPdb

| Substance | Activity (cancer cell lines; [2]) | Activity (erythrocytes) | Activity (cancer cell lines; [3]) | Activity (cancer cell lines; [4]) | Activity (erythrocytes; [6]) | Activity (cancer cell lines; [9]) | further results |
| --- | --- | --- | --- | --- | --- | --- | --- |
| FSPQMLQDIIEKKTKIL [satpdb13152] | 0 | 0 |  |  |  |  | Activity (cancer cell lines; [1]): 0; Activity (dataset HD1, hemolytic 1 / non-hemolytic 0) (erythrocytes): 0 |
| KKLFKKiLKYL [satpdb14620] | 0 | 0 | 0 | 0 |  |  |  |
| VSWKKSLGKIIKVVK [satpdb13183] | 0 |  | 0 | 0 | 1 |  | Activity (erythrocytes; [5]): 1 |
| VFQFLGKIIHHVGNFVHGFSHVF [satpdb12167] |  |  |  |  | 1 |  | Activity (cancer cell lines; [1]): 0; Activity (cancer cell lines; [7]): 0; Activity (dataset HD1, hemolytic 1 / non-hemolytic 0) (erythrocytes; [8]): 1 |
| FLSTIWNGIKSLL [satpdb12436] | 0 |  | 0 | 0 | 1 |  | Activity (erythrocytes; [5]): 1 |
| ILPKKKPWWPWRR [satpdb13640] | 0 | 1 | 0 | 0 |  |  |  |
| GLGKFLHSAKRFGKAFVGEAMNS [satpdb13009] | 0 | 1 | 0 | 0 |  |  |  |
| ILAWKWAWWAWRR [satpdb11388] | 0 | 1 |  | 0 |  | 0 |  |
| DAACAAKCLWR [satpdb10773] | 0 |  |  | 0 | 0 | 0 | Activity (erythrocytes; [5]): 0 |
| TSRCIFYRRKKCS [satpdb13333] | 0 | 1 |  |  |  |  | Activity (cancer cell lines; [1]): 0; Activity (dataset HD1, hemolytic 1 / non-hemolytic 0) (erythrocytes): 1 |
| LLIILRRRWRRQARARSR [satpdb11798] | 0 | 1 |  | 0 |  | 0 |  |
| RKLRRLKRKIAHKVKKY [satpdb10022] | 0 | 0 |  | 0 |  | 0 |  |
| DVNDLKNLCAKTHNLLPMCAMF [satpdb13885] | 0 | 0 | 0 | 0 |  |  |  |
| QPTRRPRPGTGPGRRPRPRPRP [satpdb11920] |  | 0 |  |  |  |  | Activity (cancer cell lines; [1]): 0; Activity (cancer cell lines; [7]): 0; Activity (dataset HD1, hemolytic 1 / non-hemolytic 0) (erythrocytes): 0 |
| FLPILAGLAAKIVPKLFCLATKKC [satpdb11778] |  | 1 |  |  |  |  | Activity (cancer cell lines; [1]): 0; Activity (cancer cell lines; [7]): 0; Activity (dataset HD1, hemolytic 1 / non-hemolytic 0) (erythrocytes): 1 |
| FPFSLIPHAIGGLISAIK [satpdb11349] |  |  |  |  | 1 |  | Activity (cancer cell lines; [10]): 0; Activity (cancer cell lines; [7]): 0; Activity (dataset HD1, hemolytic 1 / non-hemolytic 0) (erythrocytes; [8]): 1 |
| KfKLKQ [satpdb10387] | 0 |  |  | 0 | 0 | 0 | Activity (erythrocytes; [5]): 0 |
| GLKEIFKAGLGSLVKGIAAHVAS [satpdb12238] |  | 1 | 0 |  |  |  |  |
| LNWGALLKHLLK [satpdb12233] | 0 | 1 | 0 | 0 |  |  |  |
| KWFRVYRGIYRRR [satpdb13764] | 0 | 0 | 0 | 0 |  |  |  |
| GIGAvLKvLTTGLPALiSWIkRKRQQ [satpdb13084] | 0 |  | 0 | 0 | 0 |  | Activity (erythrocytes; [5]): 0 |
| FRPKVTITIQGSARF [satpdb11995] | 0 | 0 | 0 | 0 |  |  |  |
| CGESCVWIPCTITALAGCKCKSKVCYNSIP [satpdb10149] |  |  |  |  | 1 |  | Activity (cancer cell lines; [1]): 0; Activity (cancer cell lines; [7]): 0; Activity (dataset HD1, hemolytic 1 / non-hemolytic 0) (erythrocytes; [8]): 1 |

| Substance | Activity (cancer cell lines; [2]) | Activity (erythrocytes) | Activity (cancer cell lines; [3]) | Activity (cancer cell lines; [4]) | Activity (erythrocytes; [6]) | Activity (cancer cell lines; [9]) | further results |
| --- | --- | --- | --- | --- | --- | --- | --- |
| KWKKPLLKKLLKKL [satpdb12744] | 0 | 1 | 0 | 0 |  |  |  |
| ILPWKWPWWPWRR [satpdb10356] | 0 |  |  | 0 | 1 | 0 | Activity (erythrocytes; [5]): 1 |
| ALPLIGRVLSGIL [satpdb11361] | 0 | 1 |  | 0 |  | 0 |  |
| FLSLALAALPKLFCLIFKKC [satpdb10291] |  |  |  |  | 1 |  | Activity (cancer cell lines; [10]): 0; Activity (cancer cell lines; [7]): 0; Activity (dataset HD1, hemolytic 1 / non-hemolytic 0) (erythrocytes; [8]): 1 |
| ALWFTMLKKLGTMALHAGKAALGAAANTISQGTQ [satpdb13357] | 0 | 1 |  |  |  |  | Activity (cancer cell lines; [1]): 0; Activity (dataset HD1, hemolytic 1 / non-hemolytic 0) (erythrocytes): 1 |
| GRFKRFRKKFKKLFKKLSPVIPLLHL [satpdb13682] | 0 | 1 | 0 | 0 |  |  |  |
| KWKSFLKTFKSAKKKVLHKALKAISS [satpdb10714] | 0 |  |  | 0 | 1 | 0 | Activity (erythrocytes; [5]): 1 |
| KKKKKKAAAAFWAAAAF [satpdb11398] | 0 | 0 |  | 0 |  | 0 |  |
| KWAKKWKWFAKAAWKWYKK [satpdb12565] | 0 |  | 0 | 0 | 1 |  | Activity (erythrocytes; [5]): 1 |
| VKLKVyPLKVKLyP [satpdb10236] | 0 | 1 |  | 0 |  | 0 |  |
| FIGAIARLLSKIF [satpdb13222] | 0 |  |  |  | 1 |  | Activity (cancer cell lines; [1]): 0; Activity (dataset HD1, hemolytic 1 / non-hemolytic 0) (erythrocytes; [8]): 1 |
| AKKVFKRLEKLFSKIQNDK [satpdb11343] | 0 | 0 |  | 0 |  | 0 |  |
| GIGAVLK*VLTTGLpALISWIK*RK*RQQ [satpdb13686] | 0 |  | 0 | 0 | 1 |  | Activity (erythrocytes; [5]): 1 |
| kklfkkILKYL [satpdb10342] | 0 |  |  | 0 | 0 | 0 | Activity (erythrocytes; [5]): 0 |
| QLKVDLWGTRSGIQPEQHSSGKSDVRRWRSRY [satpdb10403] | 0 | 0 |  | 0 |  | 0 |  |
| GIGKFLHTLKTFGKKWVGEIMNS [satpdb13533] | 0 | 1 | 0 | 0 |  |  |  |
| KWKSFLKTFKSAKKTVLHTALKLISS [satpdb12569] | 0 | 1 | 0 | 0 |  |  |  |
| LALKSGGWLRLFGLKDKKH [satpdb12814] | 0 |  |  |  | 1 |  | Activity (cancer cell lines; [1]): 0; Activity (dataset HD1, hemolytic 1 / non-hemolytic 0) (erythrocytes; [8]): 1 |
| FQWQRNIRKVR [satpdb14534] | 0 | 0 | 0 | 0 |  |  |  |
| KWFKKIPKFLHLAKKF [compound 1150] |  |  |  |  | 1 | 1 | Activity (cancer cell lines; [7]): 1; Activity (cancer cell lines; ACPs dataset D5 (sheet "D5"), label 1 = ACP (positive set), 0 = non-ACP (negative set), ref CancerPPD [45] and SATPdb): 1; Activity (erythrocytes; [5]): 1 |
| GWLDVAKKIGKAAFNVAKNFLFNKAVNFAAKGIKKAVDLWG [satpdb12864] | 0 |  |  |  | 1 |  | Activity (cancer cell lines; [1]): 0; Activity (dataset HD1, hemolytic 1 / non-hemolytic 0) (erythrocytes; [8]): 1 |
| WLKKLLKKLLK [satpdb12765] | 0 | 1 | 0 | 0 |  |  |  |
| LKWLLKWLL [satpdb12315] | 0 |  | 0 | 0 | 1 |  | Activity (erythrocytes; [5]): 1 |
